pIC50, pKd: −log10 of the molar value.
Assays:
[1] = system: NF-kappaB reporter gene activation in HEK293 cells; test: NF-kappaB reporter assay; format: cell-based; conditions: Homo sapiens, pNFkBluc reporter, 20 ng/ml TNF alpha, 5 h, read-out: NF-kappaB activation (activity range), IC50
Procedure: Cells were maintained in RPMI cell culture medium+glutamine (PAN Biotech GmbH, Aidenbach, Germany) supplemented with 10% fetal calf serum (PAA Laboratories GmbH, Pasching, Austria) and grown at 37° C., 5% CO2. HEK293 cells grown to 50% confluence were transfected with the Amaxa® Cell Line Nucleofector® Kit V (Lonza, Basel, Switzerland, catalog # VCA-1003). Transfections were performed according to manufacturer's optimized protocol for transfection of HEK293 cells. In brief, 2×10^5 cells were transfected with 5 μg highly purified plasmid DNA. Cells were transfected with a NF-kappa B reporter plasmid (pNFkBluc), pTALluc for control, or pMAXGFP for transfection control. After transfection, cells were taken up in 500 μL RPMI1640 cell culture medium, incubated for 1 h at 37° C., and 4.5 ml DMEM without phenol red were added per transfection. Transfected cells were seeded in 96 well plates (Greiner Bio-One, Frickenhausen, Germany, catalog #655098) with 100 μL cell suspension per well and incubated for 48 h. To each well, 100 μL DMEM with 2× concentrated compound diluted from 10 mM DMSO stocks, or 100 μL DMEM with 0.4% DMSO for control wells, was added. The compounds of general formula (I) summarized in Table 6 were used in this assay. Cells were stimulated with 20 ng/ml TNF alpha, and plates were incubated for 5 h at 37° C./5% CO2. Cell culture supernatants were removed to leave 100 μl medium per well, followed by addition of 100 μl Bright Glo luciferase assay reagent (Promega, Madison, Wis., USA, catalog # E2620), and shaking for 5 minutes in the dark. Luminescence was measured with a Victor Photospectrometer (Perkin Elmer, Waltham, Mass., USA). IC50 values were calculated with the software Excel Fit (IDBS, Guildford, UK) from 2-fold dilution series comprising at least 10 concentrations in duplicates.

CDK9/Cyclin T1 = target: T1, CDK9/Cyclin T1 (Homo sapiens, UniProt P50750); test: LanthaScreen Eu Kinase Binding Assay, CDK9/Cyclin T1; conditions: tracer 236, read-out: CDK9/Cyclin T1 (activity range), Kd
T1 construct: purchased Invitrogen
Procedure: This protocol describes how the LanthaScreen Eu Kinase Binding Assay was performed to determine dissociation constants (Kd) of compounds of general formula (I) and CDK/Cyclin complexes. The principle behind this assay is based upon the binding and displacement of an Alexa Fluor 647-labeled tracer, which binds to the active site of kinases. Binding of the tracer to the kinase is detected using a Eu-labeled antibody. Simultaneous binding of both the tracer and antibody to the kinase gives rise to a FRET-signal. Binding of an inhibitor to the kinase competes for binding with the tracer, resulting in a loss of FRET.
The compounds of general formula (I) summarized in Table 1 were diluted from a 10 mM DMSO stock solution 1:10 in a total volume of 15 μL DMSO. This compound predilution was then serial diluted 1:3 over 8 steps in DMSO and briefly spun down. Each compound solution was now diluted 1:33.33 in kinase buffer (HEPES: 20 mM, pH: 8.0; MgCl2: 10 mM; DTT: 1 mM; Brij-35: 0.01%), mixed thoroughly and spun down. For every sample, 5 μL of the diluted compound were mixed with 5 μL tracer working solution (e.g. 60 nM tracer 236 in kinase buffer for CDK2/Cyclin A) and 5 μL CDK/Cyclin/Anti-GST-AB-working solution (e.g. 15 nM CDK2/Cyclin A, 1:250 dilution of Anti-GST-AB in kinase buffer) in a well of a small volume 384 well plate (Corning Incorporated, Corning, N.Y., USA; order no. 3673). The tracer concentration was adjusted to its dissociation constant (Kd) for the CDK/Cyclin, which was 30 nM for CDK2/Cyclin A, CDK7/Cyclin H and CDK9/Cyclin T1, 20 nM for CDK8/Cyclin C, and 35 nM for CDK9/Cyclin K. For negative controls, in each well 5 μL of DMSO working solution (3% DMSO diluted in kinase buffer) was mixed with 5 μL Anti-GST-AB working solution (e.g. 1:250 dilution of Anti-GST-AB in kinase buffer for CDK2/Cyclin A) and 5 μL Tracer working solution (e.g. 60 nM Tracer 236 in kinase buffer for CDK2/Cyclin A). For positive controls, in each well 5 μL of DMSO working solution (3% DMSO diluted in kinase buffer) was mixed with 5 μL CDK/Cyclin/Anti-GST-AB-working solution: (e.g. 15 nM CDK2/Cyclin A, 1:250 dilution of Anti-GST-AB in kinase buffer) and 5 μL Tracer working solution (e.g. 60 nM Tracer 236 in kinase buffer for CDK2/Cyclin A). Positive and negative controls were calculated from at least 8 different sample wells. The 384 well plates were mixed in a Teleshaker plate mixer (Beckman Coulter, Brea, Calif., USA) at 2000 rpm for 40 sec, and incubated for 1 h at room temperature before reading. The FRET signal was measured at 340 nm excitation, 665 nm and 615 nm emission (for the kinase tracer and LanthaScreen Eu-AB, respectively) with an Envision spectrophotometer (Perkin Elmer, Waltham, Mass., USA) with 50 μs delay and 300 μs integration time. Kd values were determined from the sigmoidal dose response curves with the software Quattro Workflow (Quattro GmbH, Munich, Germany).

[2] = system: LPS-induced TNF alpha release in PBMCs; test: TNF alpha release assay (LPS-stimulated PBMCs); format: cell-based; conditions: Homo sapiens, PBMC, 1 μg/mL LPS, 6 h, read-out: TNF alpha release (activity range), IC50
Procedure: Freshly isolated peripheral blood mononuclear cells (PBMCs) were seeded in 96-well cell culture plates with 200,000 cells in 100 μl cell culture medium (DMEM cell culture medium+glutamine from PAN Biotech GmbH, Aidenbach, Germany) supplemented with 10% fetal calf serum (PAA Laboratories GmbH, Pasching, Austria) per well and incubated overnight at 37° C., 5% CO2. To each well, 100 μL cell culture medium with 2× concentrated test compounds diluted from 10 mM DMSO stocks, or 100 μL DMEM with 0.4% DMSO for control wells, was added. The compounds of general formula (I) summarized in Table 6 were used in this assay. After incubation for 1 h at 37° C., 5% CO2, cells were stimulated with 1 μg/mL LPS (Lipopolysaccharides, Sigma, catalog #L4391-1 MG; 1 mg/ml stock solution), or left untreated for negative controls, and plates were incubated for 6 h at 37° C./5% CO2. The cell culture plates were centrifuged at 2000 rpm for 5 minutes, and supernatants were transferred to fresh 96-well polypropylene plates. 25 μL of supernatants were transferred into 96-well-plates of the human TNF alpha-tissue culture kit (Meso Scale Discovery, Gaithersburg, Md., USA), and manufacturer's instructions were followed for analysis of TNF alpha levels. Chemoluminescence was measured in the Mesoscale Sector Imager, and IC50 values were calculated with the software Excel Fit (IDBS, Guildford, UK) from 2-fold dilution series comprising at least 6 concentrations in duplicates.

T1 sequence (P50750 whole entry): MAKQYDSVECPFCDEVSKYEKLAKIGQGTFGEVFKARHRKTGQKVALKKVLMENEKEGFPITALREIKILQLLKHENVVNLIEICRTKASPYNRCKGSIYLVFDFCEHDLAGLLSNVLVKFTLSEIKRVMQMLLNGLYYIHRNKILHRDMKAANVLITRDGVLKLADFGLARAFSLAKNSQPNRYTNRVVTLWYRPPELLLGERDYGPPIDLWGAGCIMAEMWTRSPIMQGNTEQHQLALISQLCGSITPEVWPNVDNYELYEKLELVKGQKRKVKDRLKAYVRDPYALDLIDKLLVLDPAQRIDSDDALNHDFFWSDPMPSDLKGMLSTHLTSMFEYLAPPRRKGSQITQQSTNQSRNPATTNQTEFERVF
T1 sequence (O60563 whole entry partner): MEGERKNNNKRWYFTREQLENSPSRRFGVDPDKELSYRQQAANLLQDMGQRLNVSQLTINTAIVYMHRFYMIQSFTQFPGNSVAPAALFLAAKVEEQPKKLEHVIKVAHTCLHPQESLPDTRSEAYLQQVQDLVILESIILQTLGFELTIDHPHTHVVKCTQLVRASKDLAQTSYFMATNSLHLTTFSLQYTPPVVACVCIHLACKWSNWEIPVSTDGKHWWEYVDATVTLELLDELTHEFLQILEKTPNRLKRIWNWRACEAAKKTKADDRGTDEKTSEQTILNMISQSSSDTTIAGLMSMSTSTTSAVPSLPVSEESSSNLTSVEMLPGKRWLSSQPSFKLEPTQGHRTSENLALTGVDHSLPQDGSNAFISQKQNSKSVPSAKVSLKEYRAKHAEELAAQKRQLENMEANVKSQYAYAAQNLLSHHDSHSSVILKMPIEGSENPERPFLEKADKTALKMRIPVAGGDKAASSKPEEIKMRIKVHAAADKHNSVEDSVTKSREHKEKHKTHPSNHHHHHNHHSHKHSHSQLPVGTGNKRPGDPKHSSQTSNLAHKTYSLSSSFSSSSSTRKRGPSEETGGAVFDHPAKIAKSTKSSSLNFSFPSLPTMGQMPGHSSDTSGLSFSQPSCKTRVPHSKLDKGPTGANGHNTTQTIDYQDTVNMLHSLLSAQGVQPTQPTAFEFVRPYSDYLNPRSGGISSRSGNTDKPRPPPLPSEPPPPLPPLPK

pKd (CDK9/Cyclin T1)	SMILES	pIC50 [1]	pIC50 [2]
5.00 to 6.00	COc1ccccc1-c1ccnc(Nc2ccccc2)c1 [Compound B1, 4-(2-Methoxyphenyl)-N-phenylpyridin-2-amine]	< 5.00	< 5.00
> 7.00	COc1cc(F)ccc1-c1ccnc(Nc2cccc(CS(=O)(=O)N(C)C)c2)c1 [Compound G3, 1-[3-((4-(4-Fluoro-2-methoxyphenyl)pyridin-2-yl)amino)phenyl]-N,N-dimethylmethanesulfonamide]		
> 7.00	COc1cc(F)ccc1-c1ccnc(Nc2cccc(NS(C)(=O)=O)c2)c1 [Compound J1, N-[3-((4-(4-Fluoro-2-methoxyphenyl)pyridin-2-yl)amino)phenyl]-methanesulfonamide]		
> 7.00	COc1cc(F)ccc1-c1ccnc(Nc2cccc(CS(N)(=O)=O)c2)c1 [Compound G1, [3-((4-(4-Fluoro-2-methoxyphenyl)pyridin-2-yl)amino)phenyl]-methanesulfonamide]	6.00 to 7.00	6.00 to 7.00
> 7.00	COc1ccccc1-c1ccnc(Nc2cccc(S(N)(=O)=O)c2)c1 [Compound D1, 3-[(4-(2-Methoxyphenyl)pyridin-2-yl)amino]benzenesulfonamide]	6.00 to 7.00	6.00 to 7.00
6.00 to 7.00	COc1ccccc1-c1ccnc(Nc2cccc([N+](=O)[O-])c2)c1 [Compound C1, 4-(2-Methoxyphenyl)-N-(3-nitrophenyl)pyridin-2-amine]	5.00 to 6.00	5.00 to 6.00
> 7.00	COc1cc(F)ccc1-c1ccnc(Nc2cccc(NC(C)=O)c2)c1 [Compound J2, N-[3-((4-(4-Fluoro-2-methoxyphenyl)pyridin-2-yl)amino)phenyl]-acetamide]		
> 7.00	CCCNS(=O)(=O)Cc1cccc(Nc2cc(-c3ccc(F)cc3OC)ccn2)c1 [Compound K1, 1-[3-((4-(4-Fluoro-2-methoxyphenyl)pyridin-2-yl)amino)phenyl]-N-propylmethanesulfonamide]		
> 7.00	COc1ccccc1-c1ccnc(Nc2cccc(S(C)(=O)=O)c2)c1 [Compound F1, 4-(2-Methoxyphenyl)-N-(3-(methylsulfonyl)phenyl)pyridin-2-amine]	5.00 to 6.00	5.00 to 6.00
6.00 to 7.00	COc1ccccc1-c1ccnc(Nc2ccc(S(N)(=O)=O)cc2)c1 [Compound E1, 4-[(4-(2-Methoxyphenyl)pyridin-2-yl)amino]benzenesulfonamide]	5.00 to 6.00	5.00 to 6.00

— US9242937B2, “Pharmaceutically active disubstituted pyridine derivatives” (Bayer Intellectual Property GmbH, priority 2011, dated 2016)
